Test systems include A498; SNB-75; IGROV-1; HT-29; HL-60; U-251; SK-MEL-2; UO-31; OVCAR-5; SK-OV-3; UACC-62; SF-268; A549; M14; RPMI-8226; SK-MEL-28; SF-539; OVCAR-4; COLO 205; NCI-H226.
Holding throughout (assay): growth of human tumour cells (NCI), 48 h

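Cells were grown in 96-well plates and exposed to each compound for 48 hours at five concentrations; endpoints were interpolated linearly between bracketing concentrations, or set to the highest concentration if not reached. GI50: concentration for 50% inhibition of growth.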 The source made the active and inactive calls. Cut-off read from the data, not from the text of the source: active = GI50 up to about 1.1 µM and inactive = higher.

For the molecule `CCCCCCCCCCCCNC(=S)OC`, the GI50 is 16.9 µM (inactive) in the test on A498; 16.8 µM (inactive) in the test on SNB-75; 11.5 µM (inactive) in the test with IGROV-1; 16.7 µM (inactive) in the test with HT-29; 10.5 µM (inactive) in the test on HL-60; 16 µM (inactive) in the test with U-251. Also, the GI50 in the test on SK-MEL-2 was 16.8 µM (inactive); in the test on UO-31, 4.13 µM (inactive); with OVCAR-5, 16.3 µM (inactive); in the test with SK-OV-3 it was 16 µM (inactive); in the test with UACC-62, 16.1 µM (inactive); in the test with SF-268 it was 16.6 µM (inactive). For the same molecule, the GI50 in the test with A549 is 17.5 µM (inactive); in the test with M14, 17.3 µM (inactive); with RPMI-8226, 7.98 µM (inactive); in the test on SK-MEL-28 it was 16.9 µM (inactive); in the test with SF-539, 17 µM (inactive); in the test on OVCAR-4 it was 19.4 µM (inactive).
Consider `CC1(CO)OC(n2cnc3c(N)ncnc32)C(O)C1O` (stereo not drawn), for which the GI50 with A498 is > 100 µM (inactive); with SNB-75 it was 87.3 µM (inactive); with IGROV-1, > 100 µM (inactive); in the test on HT-29, > 100 µM (inactive); in the test with HL-60 it was > 100 µM (inactive); in the test with U-251, > 100 µM (inactive). Also, the GI50 with SK-MEL-2, in the test with UO-31, in the test on OVCAR-5, with SK-OV-3, in the test with UACC-62 and in the test on SF-268 was > 100 µM (inactive) each time. The GI50 in the test on A549, with M14, in the test on RPMI-8226, with SK-MEL-28, in the test on SF-539 and in the test with OVCAR-4 was > 100 µM (inactive) in each case. Moreover, the GI50 with COLO 205 is > 100 µM (inactive).
For `CCN(CC)CCn1nc2c3c(c(NCCN)ccc31)Sc1cc(O)ccc1-2`, the GI50 with A498 was 1.36 µM (inactive); with SNB-75 it was 0.813 µM (active); with IGROV-1 it was 0.505 µM (active); with HT-29 it was 0.507 µM (active); with HL-60 it was 0.0962 µM (active); in the test with U-251, 0.254 µM (active). In addition, the GI50 was 1.28 µM (inactive) in the test on SK-MEL-2; 12.3 µM (inactive) with UO-31; 1.56 µM (inactive) with OVCAR-5; 1.25 µM (inactive) in the test on SK-OV-3; 0.371 µM (active) in the test on UACC-62; 0.493 µM (active) with SF-268. Also, the GI50 was 0.176 µM (active) with A549; 0.455 µM (active) with M14; 0.377 µM (active) with RPMI-8226; 1.38 µM (inactive) in the test on SK-MEL-28; 0.406 µM (active) in the test on SF-539; 0.528 µM (active) in the test on OVCAR-4. Also, the GI50 in the test on COLO 205 was 0.865 µM (active).
Regarding `COC(=O)C1CCC(=O)C(Sc2ccccc2)C1` (stereo not drawn), the GI50 was > 100 µM (inactive) in the test on A498; 24.4 µM (inactive) with SNB-75; 51.6 µM (inactive) in the test on IGROV-1; > 100 µM (inactive) in the test on HT-29; 34 µM (inactive) in the test on HL-60; > 100 µM (inactive) with U-251. The GI50 in the test with UO-31 is 21.2 µM (inactive); with NCI-H226, > 100 µM (inactive); with OVCAR-5 it was > 100 µM (inactive); with SK-OV-3, > 100 µM (inactive); in the test on UACC-62, 80.7 µM (inactive); in the test on SF-268 it was 59.8 µM (inactive). In addition, the GI50 was > 100 µM (inactive) with A549; > 100 µM (inactive) with M14; 44.3 µM (inactive) in the test with RPMI-8226; > 100 µM (inactive) in the test with SK-MEL-28; > 100 µM (inactive) with SF-539; > 100 µM (inactive) in the test on OVCAR-4. Also, in the test on COLO 205, the GI50 was > 100 µM (inactive).
With `O=C1c2ccccc2C2(c3ccc(Cl)cc3)N[C@H]3CCCC[C@@H]3N12` (stereo partly drawn), the GI50 was > 100 µM (inactive) with A498; > 100 µM (inactive) in the test with SNB-75; > 100 µM (inactive) in the test on IGROV-1; 73.8 µM (inactive) in the test on HT-29; 47.9 µM (inactive) in the test on HL-60; > 100 µM (inactive) with U-251. Besides, the GI50 in the test on UO-31 is > 100 µM (inactive); in the test on NCI-H226, 61.1 µM (inactive); in the test with SK-OV-3 it was > 100 µM (inactive); in the test with UACC-62, > 100 µM (inactive); in the test with SF-268 it was 48.8 µM (inactive); in the test with A549, 77.6 µM (inactive). In addition, the GI50 with RPMI-8226 was 54.1 µM (inactive); in the test with SK-MEL-28, > 100 µM (inactive); in the test with OVCAR-4, 84.3 µM (inactive); in the test on COLO 205, > 100 µM (inactive).
Turning to `COc1ccc(CC2COc3cc(O)cc(O)c3C2=O)cc1O` (stereo not drawn), the GI50 is 99.3 µM (inactive) with A498; 1.37 µM (inactive) in the test with SNB-75; 4.23 µM (inactive) in the test on IGROV-1; 13.6 µM (inactive) in the test on HT-29; 2.4 µM (inactive) with HL-60; 4.89 µM (inactive) in the test on U-251. In addition, the GI50 is 3.81 µM (inactive) in the test with SK-MEL-2; 17 µM (inactive) with UO-31; 12.3 µM (inactive) with OVCAR-5; 5.64 µM (inactive) with SK-OV-3; 8.57 µM (inactive) in the test with UACC-62; 14.7 µM (inactive) with SF-268. The GI50 is 11.9 µM (inactive) in the test on A549; 3.86 µM (inactive) in the test on M14; 3.01 µM (inactive) in the test on RPMI-8226; 3.75 µM (inactive) in the test on SK-MEL-28; 2.97 µM (inactive) in the test on SF-539; 11.8 µM (inactive) with OVCAR-4. The GI50 with COLO 205 was 20.4 µM (inactive).
`O=C(NC1CCCCC1)NC12CC3CC(CC(F)(C3)C1)C2`: the GI50 in the test on A498 was > 100 µM (inactive); in the test with SNB-75, 40.4 µM (inactive); with IGROV-1, > 100 µM (inactive); in the test with HT-29, > 100 µM (inactive); in the test on HL-60, > 100 µM (inactive); in the test with U-251, > 100 µM (inactive). Besides, the GI50 is > 100 µM (inactive) in the test with SK-MEL-2; 55.3 µM (inactive) in the test with UO-31; > 100 µM (inactive) in the test with OVCAR-5; > 100 µM (inactive) in the test with SK-OV-3; > 100 µM (inactive) in the test on UACC-62; > 100 µM (inactive) with A549. The GI50 with M14, in the test on RPMI-8226, with SK-MEL-28, with SF-539 and with COLO 205 was > 100 µM (inactive) throughout.
`c1ccc(C2N3CCCCC3[C@@H]3c4[nH]c5ccccc5c4CCN23)cc1` (stereo partly drawn): the GI50 with A498 was 27 µM (inactive); with SNB-75 it was 57.9 µM (inactive); with IGROV-1, > 100 µM (inactive); in the test with HT-29, 17.5 µM (inactive); in the test with HL-60 it was 22.1 µM (inactive); in the test on U-251, > 100 µM (inactive). Moreover, the GI50 in the test with SK-MEL-2 is > 100 µM (inactive); with UO-31, 70 µM (inactive); in the test on OVCAR-5, > 100 µM (inactive); in the test with SK-OV-3, > 100 µM (inactive); with UACC-62, 48.3 µM (inactive); with SF-268, > 100 µM (inactive). In addition, the GI50 in the test on A549 was > 100 µM (inactive); in the test on M14, > 100 µM (inactive); with RPMI-8226, 36.2 µM (inactive); in the test on SK-MEL-28 it was 28 µM (inactive); in the test with SF-539, > 100 µM (inactive); with OVCAR-4 it was 29.5 µM (inactive). In addition, the GI50 in the test with COLO 205 was 23.3 µM (inactive).
Take `NN=C(S)Nc1cccc(Cl)c1`: the GI50 is > 100 µM (inactive) in the test with A498; > 100 µM (inactive) with SNB-75; > 100 µM (inactive) in the test on IGROV-1; 37.4 µM (inactive) in the test on HT-29; > 100 µM (inactive) in the test with HL-60; > 100 µM (inactive) in the test with U-251. Moreover, the GI50 in the test on SK-MEL-2 was 79.4 µM (inactive); in the test on UO-31 it was > 100 µM (inactive); in the test with OVCAR-5 it was > 100 µM (inactive); in the test on SK-OV-3, > 100 µM (inactive); in the test with UACC-62 it was > 100 µM (inactive); in the test on SF-268, > 100 µM (inactive). The GI50 in the test with A549 is > 100 µM (inactive); in the test on M14, 88.7 µM (inactive); in the test on RPMI-8226, > 100 µM (inactive); with SK-MEL-28, > 100 µM (inactive); in the test with SF-539, > 100 µM (inactive); with OVCAR-4, 39.9 µM (inactive). Further, the GI50 with COLO 205 was 89.7 µM (inactive).
With `O=C1c2ccccc2C(=O)c2[nH]c(=O)c(/C=N/Nc3ccc([N+](=O)[O-])cc3)nc21`, the GI50 was 4.67 µM (inactive) in the test with A498; 14.4 µM (inactive) in the test on IGROV-1; 2.59 µM (inactive) in the test with HT-29; 8.79 µM (inactive) with HL-60; 7.24 µM (inactive) in the test with U-251; 3.86 µM (inactive) with SK-MEL-2. The GI50 in the test on UO-31 is 6.58 µM (inactive); in the test on NCI-H226, 1.51 µM (inactive); with OVCAR-5, 31.6 µM (inactive); in the test on SK-OV-3, 9.73 µM (inactive); in the test on UACC-62, 2.09 µM (inactive); with SF-268 it was 8.59 µM (inactive). Moreover, the GI50 in the test on A549 is 3.52 µM (inactive); with M14, 2.01 µM (inactive); in the test on RPMI-8226, > 37 µM (inactive); in the test with SK-MEL-28, 5.47 µM (inactive); in the test on SF-539, 5.93 µM (inactive); with OVCAR-4 it was 18.4 µM (inactive). Besides, in the test with COLO 205, the GI50 was 7.98 µM (inactive).
For the molecule `CC(C)N(C(=O)C1(O)c2ccccc2C=Cc2ccccc21)C(C)C`, the GI50 in the test with A498 was 16.3 µM (inactive); in the test with IGROV-1 it was 14.8 µM (inactive); in the test with HT-29 it was 15.3 µM (inactive); in the test with HL-60, 1.92 µM (inactive); in the test with U-251, 16.8 µM (inactive); in the test on SK-MEL-2, 17.1 µM (inactive). Moreover, the GI50 in the test with UO-31 is 21.1 µM (inactive); in the test with NCI-H226, 19.3 µM (inactive); with OVCAR-5, 14.4 µM (inactive); in the test on SK-OV-3 it was 25.3 µM (inactive); in the test with UACC-62, 15.4 µM (inactive); in the test on SF-268, 21.5 µM (inactive). In addition, the GI50 was 19.9 µM (inactive) with A549; 19 µM (inactive) with M14; 35.9 µM (inactive) in the test with RPMI-8226; 17.2 µM (inactive) in the test on SK-MEL-28; 18.7 µM (inactive) with SF-539; 22.5 µM (inactive) with OVCAR-4. Besides, the GI50 in the test on COLO 205 was 19.3 µM (inactive).

The values above are taken from ChEMBL document CHEMBL1201862, “PubChem BioAssay data set” (2004).
